# Measured values: US12304899B2, “Factor XI activation inhibitors” (Merck Sharp & Dohme LLC, priority 2019, dated 2025)
# Biological target: T1, Human coagulation factor (F)XI (Homo sapiens, UniProt P03951)
# T1 construct: purchased Haematologic Technologies Inc. (FXI); Enzyme Research Laboratories (FXIIa) HCXI-150 (FXI); HFXIIa (FXIIa)
# Assay: Inhibition of FXIIa mediated activation of FXI (activation of human Factor XI to XIa by human Factor α-XIIa)
# Type: biochemical
# Conditions: human FXI pre-incubated with compound 30 min at 22° C., activation by human FXIIa 60 min, z-GPR-AFC substrate fluorescence, 4 parameter logistic fit; read-out: Inhibition of FXIIa meditated activation of FXI
# Procedure: Inhibition of FXIIa Mediated Activation of FXI
# Activation of Human Factor XI to XIa by Human Factor α-XIIa
# The assay was performed in 50 mM HEPES, 150 mM NaCl, 5 mM CaCl2, 0.1% PEG-8000, pH 7.4 buffer in black, flat-bottom, polystyrene microplates (Corning, Cat #3573). Serial dilutions (10-point, 3.333-fold) of the test compounds delivered as 10 mM DMSO stocks were prepared in the Labcyte Echo-qualified PP 384 well microplates (Labcyte, Cat #P-05525). Human coagulation factor (F)XI (Haematologic Technologies Inc., Cat #HCXI-150, concentration 46 nM, 19.5 uL) was pre-incubated with 0.5 uL of the test compounds for 30 min at 22° C. The activation was initiated by addition of 10 uL of human coagulation factor (F)XIIa (Enzyme Research Laboratories, Cat #HFXIIa, concentration 30 nM) and the reaction proceeded for 60 min at 22° C., after which it was quenched by addition of a selective inhibitor of FXIIa (Compound 54 in International Patent Publication WO2018093695) concentration 600 uM in DMSO, 1 uL). 10 min after the quench, 29 uL of z-GPR-AFC substrate (Sigma, Cat #C0980-10 MG, concentration 200 uM) was added into each well and the detection reaction proceeded for 60 min at 22° C. Fluorescence at 405/510 nm was measured in end-point mode using an Envision plate-reader (Perkin Elmer). IDBS Activity Base XE (ABase) analysis using 4 parameter logistic fit was performed to determine Minimum, Maximum, EC50, and Slope Factor for each compound.
# T1 sequence (P03951 19-625): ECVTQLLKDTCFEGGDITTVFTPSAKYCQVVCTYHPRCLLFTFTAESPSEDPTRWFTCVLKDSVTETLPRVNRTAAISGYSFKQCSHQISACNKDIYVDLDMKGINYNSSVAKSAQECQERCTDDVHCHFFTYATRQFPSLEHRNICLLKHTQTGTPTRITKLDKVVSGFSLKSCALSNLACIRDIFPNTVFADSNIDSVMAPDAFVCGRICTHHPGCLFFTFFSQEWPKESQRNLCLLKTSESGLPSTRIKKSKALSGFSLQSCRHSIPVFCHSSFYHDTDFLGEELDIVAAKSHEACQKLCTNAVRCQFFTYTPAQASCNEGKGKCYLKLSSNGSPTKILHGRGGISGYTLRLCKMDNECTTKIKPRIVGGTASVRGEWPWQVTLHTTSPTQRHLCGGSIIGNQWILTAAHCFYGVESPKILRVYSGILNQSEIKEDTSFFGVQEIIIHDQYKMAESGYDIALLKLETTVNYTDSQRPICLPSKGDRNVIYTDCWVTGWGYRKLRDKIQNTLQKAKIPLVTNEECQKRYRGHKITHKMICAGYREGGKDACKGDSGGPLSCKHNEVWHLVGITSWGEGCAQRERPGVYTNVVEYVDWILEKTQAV
row,EC50 [nM],SMILES
1,48.6,"O=C(c1cc(C(=O)N2CCCCC2)c2cc(OCc3nc4ccccc4s3)ccc2n1)N1CCCN(Cc2nccs2)CC1 [Example 71, 4-(6-(benzo[d]thiazol-2-yl-methoxy)-4-(piperidine-1-carbonyl)quinoline-2-car-bonyl)-1-(thiazol-2-yl-methyl)-1,4-diazepan-1-ium 2,2,2-trifluoroacetate]"
2,39,"N#Cc1cc(Cl)ccc1COc1ccc2nc(C(=O)N3CCC(C#N)(c4ccccc4)CC3)cc(C(=O)N3CCCCC3)c2c1 [Example 27, 1-(6-((4-chloro-2-cyanobenzyl)oxy)-4-(piperidine-1l-carbonyl)quinoline-2-carbonyl)-4-phenylpiperidine-4-carbonitrile]"
3,19.1,"CS(=O)(=O)N1CCN(C(=O)c2cc(C(=O)N3CCCCC3)c3cc(OCc4nc5ccccc5s4)ccc3n2)CC1 [Example 68, (6-(benzo[d]thiazol-2-yl-methoxy)-2-(4-(methyl-sulfonyl)piperazine-1-carbonyl)quinolin-4-yl)-(piperidin-1-yl)methanone]"
4,45.9,"O=C(c1cc(C(=O)N2CCCCC2)c2cc(OCc3nc4ccccc4s3)ccc2n1)N1CCC(n2cc(F)cn2)CC1 [Example 69, (6-(benzo[d]thiazol-2-yl-methoxy)-2-(4-(4-fluoro-1H-pyrazol-1-yl)piperi-dine-1-carbonyl)quinolin-4-yl)(piperidin-1-yl) methanone]"
5,10.2,"N#CC1(n2cccn2)CCN(C(=O)c2cc(C(=O)N3CCCCC3)c3cc(OCc4ccc5snnc5c4)ccc3n2)CC1 [Example 76, 1-(6-(benzo[d][1,2,3]thiadiazol-5-ylmethoxy)-4-(piperidine-1-carbonyl)quinoline-2-carbonyl)-4-(1H-pyrazol-1-yl)piperidine-4-carbonitrile]"
6,31.8,"Cc1c(COc2ccc3nc(C(=O)N4CCC(C)(O)C4)cc(C(=O)N4CCCCC4)c3c2)ccc2c1COC2=O (single isomer, unassigned) [Example 5a, 5-(((2-(3-hydroxy-3-methylpyrrolidine-1-carbonyl)-4-(piperidine-1-carbonyl)quinolin-6-yl)oxy)methyl)-4-methylisobenzofuran-1(3H)-one]"
7,49.2,"O=C(c1cc(C(=O)N2CCCCC2)c2cc(OCc3ccc4nnsc4c3)ccc2n1)N1CCC(n2cccn2)CC1 [Example 6, (4-(1H-pyrazol-1-yl)piperidin-1-yl)(6-(benzo[d][1,2,3]thiadiazol-6-ylmethoxy)-4-(piperidine-1-carbonyl)quinolin-2-yl)methanone]"
8,60,"NC(=O)C1(c2ccccc2)CCN(C(=O)c2cc(C(=O)N3CCCCC3)c3cc(OCc4nc5ccccc5s4)ccc3n2)CC1 [Example 59, 1-(6-(benzo[d]thiazol-2-yl-methoxy)-4-(piperidine-1-carbonyl)quinoline-2-car-bonyl)-4-phenylpiperidine-4-carboxamide]"
9,46.9,"N#Cc1cccc(COc2ccc3nc(C(=O)N4CCC(C#N)(c5ccccc5)CC4)cc(C(=O)N4CCCCC4)c3c2)c1 [Example 32, 1-(6-((3-cyanobenzyl)oxy)-4-(piperidine-1-carbonyl)quin-oline-2-carbonyl)-4-phenyl-piperidine-4-carbonitrile]"
10,28.9,"O=C(c1cc(C(=O)N2CCCCC2)c2cc(OCc3nc4ccccc4s3)ccc2n1)N1CCC(n2cccn2)CC1 [Example 26, (4-(1H-pyrazol-1-yl)piperidin-1-yl)(6-(benzo[d]thiazol-2-ylmethoxy)-4-(piperidine-1-carbonyl)quinolin-2-yl) methanone]"
11,35.1,"O=C(c1cc(C(=O)N2CCCCC2)c2cc(OCc3cn4c(F)cccc4n3)ccc2n1)N1CCC(n2cccn2)CC1 [Example 11, (4-(1H-pyrazol-1-yl)piperidin-1-yl)(6-((5-fluoroimidazo[1,2-a]pyridin-2-yl)methoxy)-4-(piperidine-1-carbonyl)-quinolin-2-yl)methanone]"
12,28.3,"O=C(c1cc(C(=O)N2CCC(F)CC2)c2cc(OCc3nc4ccccc4s3)ccc2n1)N1CCC(n2cccn2)CC1 [Example 52, (4-(1H-pyrazol-1-yl)piperidin-1-yl)(6-(benzo[d]thiazol-2-ylmethoxy)-4-(4-fluoropiperidine-1-carbonyl)quinolin-2-yl)methanone]"
13,32.2,"N#CC1(n2cccn2)CCN(C(=O)c2cc(C(=O)N3CCCCC3)c3cc(OCc4ncc(C(F)(F)F)cc4Cl)ccc3n2)CC1 [Example 2, 1-(6-((3-chloro-5-(trifluoro-methyl)pyridin-2-yl)meth-oxy)-4-(piperidine-1-carbon-yl)quinoline-2-carbonyl)-4-(1H-pyrazol-1-yl)piperidine-4-carbonitrile]"
14,24.9,"N#Cc1ccc(COc2ccc3nc(C(=O)N4CCC(C#N)(c5ccccc5)CC4)cc(C(=O)N4CCCCC4)c3c2)cc1 [Example 31, 1-(6-((4-cyanobenzyl)oxy)-4-(piperidine-1-carbonyl)quin-oline-2-carbonyl)-4-phenyl-piperidine-4-carbonitrile]"
15,49.9,"COc1ccc(COc2ccc3nc(C(=O)N4CCC(C#N)(c5ccccc5)CC4)cc(C(=O)N4CCCCC4)c3c2)c(Cl)c1 [Example 40, 1-(6-((2-chloro-4-methoxy-benzyl)oxy)-4-(piperidine-1-carbonyl)quinoline-2-carbon-yl)-4-phenylpiperidine-4-carbonitrile]"
16,39.7,"N#CC1(c2ccccc2)CCN(C(=O)c2cc(C(=O)N3CCCCC3)c3cc(OCc4cccc([N+](=O)[O-])c4)ccc3n2)CC1 [Example 29, 1-(6-((3-nitrobenzyl)oxy)-4-(piperidine-1-carbonyl)quin-oline-2-carbonyl)-4-phenyl-piperidine-4-carbonitrile]"
17,49.5,"N#CC1(c2ccccc2)CCN(C(=O)c2cc(C(=O)N3CCCCC3)c3cc(OCc4ccc(C(F)(F)F)cc4)ccc3n2)CC1 [Example 38, 4-phenyl-1-(4-(piperidine-1-carbonyl)-6-((4-(trifluoro-methyl)benzyl)oxy)quin-oline-2-carbonyl)piperidine-4-carbonitrile]"
18,16.8,"O=C(c1cc(C(=O)N2CCCCC2)c2cc(OCc3ncc(C(F)(F)F)cc3Cl)ccc2n1)N1CCC(n2cccn2)CC1 [Example 12, (4-(1H-pyrazol-1-yl)piperidin-1-yl)(6-((3-chloro-5-(trifluoro-methyl)pyridin-2-yl)methoxy)-4-(piperidine-1-carbonyl)-quinolin-2-yl)methanone]"
19,13.8,"N#CC1(c2ccccc2)CCN(C(=O)c2cc(C(=O)N3CCCCC3)c3cc(OCc4cn5ccccc5n4)ccc3n2)CC1 [Example 47, 1-(6-(imidazo[1,2-a]pyridin-2-ylmethoxy)-4-(piperidine-1-carbonyl)quinoline-2-carbonyl)-4-phenylpiperi-dine-4-carbonitrile]"
20,71.5,"CN(C(=O)c1cc(C(=O)N2CCC(n3cccn3)CC2)nc2ccc(OCc3nc4ccccc4s3)cc12)C1CC1 [Example 54, 2-(4-(1H-pyrazol-1-yl)piperi-dine-1-carbonyl)-6-(benzo[d]-thiazol-2-ylmethoxy)-N-cyclo-propyl-N-methylquinoline-4-carboxamide]"
21,42.1,"O=C(c1cc(C(=O)N2CCCCC2)c2cc(OCc3nc4ccccc4s3)ccc2n1)N1CCC(n2ccnn2)CC1 [Example 64, (4-(1H-1,2,3-triazol-1-yl)-piperidin-1-yl)(6-(benzo-[d]thiazol-2-ylmethoxy)-4-(piperidine-1-carbonyl)-quinolin-2-yl)methanone]"
22,19.1,"O=C(c1cc(C(=O)N2CCCCC2)c2cc(OCc3nc4ccccc4s3)ccc2n1)N1CCN(CC(F)(F)F)CC1 [Example 65, (6-(benzo[d]thiazol-2-yl-methoxy)-2-(4-(2,2,2-trifluoroethyl)piperazine-1-carbonyl)quinolin-4-yl)-(piperidin-1-yl)methanone]"
23,40.5,"N#CC1(c2ccccc2)CCN(C(=O)c2cc(C(=O)N3CCCCC3)c3cc(OCc4noc5ccccc45)ccc3n2)CC1 [Example 51, 1-(6-(benzo[d]isoxazol-3-yl-methoxy)-4-(piperidine-1-carbonyl)quinoline-2-carbon-yl)-4-phenylpiperidine-4-carbonitrile]"
24,20,"N#Cc1ccc(COc2ccc3nc(C(=O)N4CCC(n5cccn5)CC4)cc(C(=O)N4CCCCC4)c3c2)cc1F [Example 13, 4-(((2-(4-(1H-pyrazol-1-yl)-piperidine-1-carbonyl)-4-(piperidine-1-carbonyl)-quinolin-6-yl)oxy)methyl)-2-fluorobenzonitrile]"
25,34.7,"O=C(c1cc(C(=O)N2CCCCC2)c2cc(OCc3nc4ccccc4s3)ccc2n1)N1CCN(CC(F)F)CC1 [Example 67, (6-(benzo[d]thiazol-2-yl-methoxy)-2-(4-(2,2-difluoroethyl)piperazine-1-carbonyl)quinolin-4-yl)-(piperidin-1-yl)methanone]"
